pEC50, pIC50: −log10 of the molar value. ≈ marks a conversion by molar mass, not a printed value. Like-named read-outs stand apart in the source and are kept apart here.

Assay [1] deals with T1, A. baumannii PBP1a (Acinetobacter baumannii, UniProt A0ABX6CK30).
T1 sequence (A0ABX6CK30 1-851): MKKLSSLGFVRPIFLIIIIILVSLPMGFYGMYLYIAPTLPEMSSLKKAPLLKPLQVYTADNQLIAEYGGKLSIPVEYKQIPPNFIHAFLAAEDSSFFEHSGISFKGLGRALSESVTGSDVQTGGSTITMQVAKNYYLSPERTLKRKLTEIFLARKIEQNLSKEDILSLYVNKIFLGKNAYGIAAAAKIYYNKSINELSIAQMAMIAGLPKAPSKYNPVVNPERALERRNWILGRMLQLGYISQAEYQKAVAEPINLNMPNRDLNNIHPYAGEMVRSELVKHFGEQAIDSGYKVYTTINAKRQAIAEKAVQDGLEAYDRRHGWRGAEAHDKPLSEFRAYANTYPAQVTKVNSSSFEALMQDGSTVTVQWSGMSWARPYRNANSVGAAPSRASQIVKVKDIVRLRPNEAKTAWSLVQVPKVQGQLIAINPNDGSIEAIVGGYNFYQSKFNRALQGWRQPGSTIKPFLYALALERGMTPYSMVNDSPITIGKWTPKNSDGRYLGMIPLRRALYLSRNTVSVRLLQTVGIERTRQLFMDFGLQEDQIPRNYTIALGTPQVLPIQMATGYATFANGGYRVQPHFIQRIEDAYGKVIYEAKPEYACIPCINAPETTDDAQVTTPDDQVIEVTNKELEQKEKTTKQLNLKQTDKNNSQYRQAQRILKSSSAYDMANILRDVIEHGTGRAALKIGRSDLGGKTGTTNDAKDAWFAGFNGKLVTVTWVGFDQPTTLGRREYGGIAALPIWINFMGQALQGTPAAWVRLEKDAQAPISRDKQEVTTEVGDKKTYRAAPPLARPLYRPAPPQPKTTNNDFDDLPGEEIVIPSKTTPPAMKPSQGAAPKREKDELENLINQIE
The experiment in a line: Bocillin-FL competition binding via gel filtration, A. baumannii PBP1a. In a few lines: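 Competitive equilibrium binding; reporter Bocillin-FL. PBP + inhibitor (titration) pre-incubated → Bocillin-FL, 15 min → gel filtration → fluorescence. EC50 from Hill fit of fraction bound vs [inhibitor].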
A general note: Size exclusion chromatography separates by hydrodynamic size, large species first.

The subject of assay [2] is P. aeruginosa CDC-0090. The experiment in a line: microbe, parasite or virus in culture. Format: cell-based. As to conditions: Pseudomonas aeruginosa, CDC0090, read-out: Minimum inhibitory concentration, P. aeruginosa CDC-0090.
Assay [3] has as its target T2, PBP3 from Pseudomonas aeruginosa (PAO1) (Pseudomonas aeruginosa, UniProt G3XD46).
T2 construct: made in house
Description: Bocillin-FL fluorescence polarization competition binding, P. aeruginosa PBP3. As to conditions: Binding affinity to P. aeruginosa PBP3; fluorescence polarization competition binding assay using Bocillin-FL; read-out: P. aeruginosa PBP3 Potency. The gist of the method: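 Purified PBP was preincubated with inhibitor (E. coli PBP3 1.5 μM, 30 min; P. aeruginosa PBP3 0.75 μM, A. baumannii PBP3 0.2 μM and PBP1a 1 μM, 15 min), then Bocillin-FL (0.1 μM; 0.05 μM for PBP1a) added and FP read up to 60 min. EC50 = 50% loss of bound probe.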

Assay [4] has as its system A. baumannii ATCC 19606. Description: microbe, parasite or virus in culture. It is filed as cell-based. The conditions noted are these: Acinetobacter baumannii.
Where [5] appears, read: competition binding assay using Bocillin-FL via gel filtration, read-out: A. baumannii PBP1a Potency.
Setting [6] is: ATCC19606, read-out: MIC, A. baumannii ATCC 19606.
Where [7] appears, read: ATCC19606, read-out: Minimum inhibitory concentration (MIC), A. baumannii ATCC 19606.

T2 sequence (G3XD46 whole entry): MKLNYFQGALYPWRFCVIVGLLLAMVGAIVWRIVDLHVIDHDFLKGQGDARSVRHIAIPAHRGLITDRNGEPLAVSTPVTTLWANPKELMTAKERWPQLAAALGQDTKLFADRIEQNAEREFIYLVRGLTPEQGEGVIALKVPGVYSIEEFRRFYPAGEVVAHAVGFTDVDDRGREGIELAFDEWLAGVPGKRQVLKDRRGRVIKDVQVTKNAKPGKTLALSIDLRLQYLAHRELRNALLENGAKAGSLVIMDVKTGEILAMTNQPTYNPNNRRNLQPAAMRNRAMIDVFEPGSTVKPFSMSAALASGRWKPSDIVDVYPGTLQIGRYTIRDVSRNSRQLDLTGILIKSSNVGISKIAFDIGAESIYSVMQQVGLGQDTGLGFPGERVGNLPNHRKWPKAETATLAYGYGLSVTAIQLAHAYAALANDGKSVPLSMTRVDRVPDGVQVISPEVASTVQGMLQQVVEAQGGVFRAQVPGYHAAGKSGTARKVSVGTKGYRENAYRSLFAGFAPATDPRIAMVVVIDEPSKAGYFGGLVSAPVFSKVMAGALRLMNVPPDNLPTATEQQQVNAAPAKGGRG

`O=C(O)c1c(F)ccc2c1OB(O)[C@@H](NC(=O)[C@H](NC(=O)N1CCN(C3CCN(C(=O)Nc4cccc(O)c4F)CC3)C1=O)c1cc(F)c(O)c(O)c1Cl)C2` (single isomer, unassigned) [Example 446]: the pEC50 in assay [1] (setting [5]) was 4.30 to 5.00. Besides, the MIC in assay [2] and in assay [4] (setting [6]) was less than 1 µg/mL throughout. Further, the pIC50 in assay [3] was greater than 5.00.
Turning to `O=C(O)c1c(F)ccc2c1OB(O)[C@@H](NC(=O)[C@H](NC(=O)N1CCN(C3CCN(C(=O)Nc4ccc(O)cc4)CC3)C(=O)C1=O)c1cc(F)c(O)c(O)c1Cl)C2` (single isomer, unassigned) [Example 426], in assay [1] (setting [5]), the pEC50 was 4.30 to 5.00. In addition, the MIC in assay [2] and in assay [4] (setting [6]) was less than 1 µg/mL throughout. Also, the pIC50 in assay [3] was greater than 5.00.
As for `O=C(O)c1c(F)ccc2c1OB(O)[C@@H](NC(=O)[C@H](NC(=O)N1CCN(C3CCN(C(=O)Nc4cccc(O)c4Cl)CC3)C1=O)c1cc(F)c(O)c(O)c1Cl)C2` [Example 447, (R)-3-((R)-2-(3-(1-((2-chloro-3-hydroxyphenyl)carbamoyl)piperidin-4-yl)-2-oxoimidazolidine-1-carboxamido)-2-(2-chloro-5-fluoro-3,4-dihydroxyphenyl)acetamido)-7-fluoro-2-hydroxy-3,4-dihydro-2H-benzo[e][1,2]oxaborinine-8-carboxylic acid], the pEC50 in assay [1] (setting [5]) is greater than 5.00. For the same molecule, the MIC in assay [2] and in assay [4] (setting [6]) was less than 1 µg/mL in each case. Also, in assay [3], the pIC50 was greater than 5.00.
In the case of `O=C(O)c1c(F)ccc2c1OB(O)[C@@H](NC(=O)[C@H](NC(=O)N1CCN(C3CCN(C(=O)Nc4c(F)ccc(O)c4Cl)CC3)C1=O)c1cc(F)c(O)c(O)c1Cl)C2` (single isomer, unassigned) [Example 455], the pEC50 in assay [1] (setting [5]) was greater than 5.00. The MIC in assay [2] and in assay [4] (setting [6]) was less than 1 µg/mL throughout. The pIC50 in assay [3] was greater than 5.00.
On to `O=C(O)c1c(F)ccc2c1OB(O)[C@@H](NC(=O)[C@H](NC(=O)N1CCN(Cc3ccc(O)c(O)c3Cl)C(=O)C1=O)c1cc(F)c(P(=O)(O)O)c(F)c1)C2` [Example 502, (R)-3-((R)-2-(4-(2-chloro-3,4-dihydroxybenzyl)-2,3-dioxopiperazine-1-carboxamido)-2-(3,5-difluoro-4-phosphonophenyl)acetamido)-7-fluoro-2-hydroxy-3,4-dihydro-2H-benzo[e][1,2]oxaborinine-8-carboxylic acid], for which the pEC50 in assay [1] (setting [5]) is 4.30 to 5.00. In addition, the MIC in assay [2] and in assay [4] (setting [7]) was less than 1 µg/mL in each case. Besides, the pIC50 in assay [3] was greater than 5.00.
For `O=C(O)c1c(F)ccc2c1OB(O)[C@@H](NC(=O)C(NC(=O)N1CCN(C3CCN(C(=O)Nc4cc(O)ccc4F)CC3)C(=O)C1=O)c1cc(F)c(O)c(O)c1Cl)C2` (stereo partly drawn) [Example 479, (3R)-3-(2-(2-chloro-5-fluoro-3,4-dihydroxyphenyl)-2-(4-(1-((2-fluoro-5-hydroxyphenyl)carbamoyl)piperidin-4-yl)-2,3-dioxopiperazine-1-carboxamido)acetamido)-7-fluoro-2-hydroxy-3,4-dihydro-2H-benzo[e][1,2]oxaborinine-8-carboxylic acid], the pEC50 in assay [1] (setting [5]) was 4.30 to 5.00. In addition, the MIC in assay [2] was 2 to 4 µg/mL (≈ 2.44 to 4.88 µM); in assay [4] (setting [6]) it was less than 1 µg/mL. Besides, the pIC50 in assay [3] is greater than 5.00.
For `O=C(O)c1c(F)ccc2c1OB(O)[C@@H](NC(=O)[C@H](NC(=O)N1CCN(C3CCN(C(=O)c4ccc(O)c(O)c4Cl)CC3)C1=O)c1ccc(P(=O)(O)O)cc1)C2` [Example 494, (R)-3-((R)-2-(3-(1-(2-chloro-3,4-dihydroxybenzoyl)piperidin-4-yl)-2-oxoimidazolidine-1-carboxamido)-2-(4-phosphonophenyl)acetamido)-7-fluoro-2-hydroxy-3,4-dihydro-2H-benzo[e][1,2]oxaborinine-8-carboxylic acid], the pEC50 in assay [1] (setting [5]) was 3.60 to 4.30. Further, the MIC in assay [2] and in assay [4] (setting [7]) was less than 1 µg/mL each time. Moreover, the pIC50 in assay [3] was greater than 5.00.
Regarding `O=C(O)c1c(F)ccc2c1OB(O)[C@@H](NC(=O)C(NC(=O)N1CCN(C3CCN(C(=O)Nc4c(F)ccc(O)c4F)CC3)C(=O)C1=O)c1cc(F)c(O)c(O)c1Cl)C2` (stereo partly drawn) [Example 487, (3R)-3-(2-(2-chloro-5-fluoro-3,4-dihydroxyphenyl)-2-(4-(1-((2,6-difluoro-3-hydroxyphenyl)carbamoyl)piperidin-4-yl)-2,3-dioxopiperazine-1-carboxamido)acetamido)-7-fluoro-2-hydroxy-3,4-dihydro-2H-benzo[e][1,2]oxaborinine-8-carboxylic acid], the pEC50 in assay [1] (setting [5]) is 4.30 to 5.00. The MIC is 2 to 4 µg/mL (≈ 2.39 to 4.78 µM) in assay [2] and less than 1 µg/mL in assay [4] (setting [7]). Moreover, the pIC50 in assay [3] is greater than 5.00.
For `O=C(O)c1c(F)ccc2c1OB(O)[C@@H](NC(=O)C(NC(=O)N1CCN(C3CCN(C(=O)Nc4ccc(F)c(O)c4F)CC3)C(=O)C1=O)c1cc(F)c(O)c(O)c1Cl)C2` (stereo partly drawn) [Example 486, (3R)-3-(2-(2-chloro-5-fluoro-3,4-dihydroxyphenyl)-2-(4-(1-((2,4-difluoro-3-hydroxyphenyl)carbamoyl)piperidin-4-yl)-2,3-dioxopiperazine-1-carboxamido)acetamido)-7-fluoro-2-hydroxy-3,4-dihydro-2H-benzo[e][1,2]oxaborinine-8-carboxylic acid] the same measures were greater than 5.00, 2 to 4 µg/mL (≈ 2.39 to 4.78 µM), less than 1 µg/mL and greater than 5.00.
In the case of `O=C(O)c1c(F)ccc2c1OB(O)[C@@H](NC(=O)[C@H](NC(=O)N1CCN(C3CCN(Cc4cccnc4)CC3)C1=O)c1cc(F)c(O)c(O)c1Cl)C2` [Example 492, (R)-3-((R)-2-(2-chloro-5-fluoro-3,4-dihydroxyphenyl)-2-(2-oxo-3-(1-(pyridin-3-ylmethyl)piperidin-4-yl)imidazolidine-1-carboxamido)acetamido)-7-fluoro-2-hydroxy-3,4-dihydro-2H-benzo[e][1,2]oxaborinine-8-carboxylic acid], the pEC50 in assay [1] is greater than 5.00. Also, the MIC in assay [2] and in assay [4] (setting [7]) was less than 1 µg/mL in each case. Also, the pIC50 in assay [3] is greater than 5.00.
As for `O=C(O)c1c(F)ccc2c1OB(O)[C@@H](NC(=O)[C@H](NC(=O)N1CCN(C3CCN(C(=O)Nc4cccc(O)c4)CC3)C1=O)c1cc(F)c(O)c(O)c1Cl)C2` [Example 445, (R)-3-((R)-2-(2-chloro-5-fluoro-3,4-dihydroxyphenyl)-2-(3-(1-((3-hydroxyphenyl)carbamoyl)piperidin-4-yl)-2-oxoimidazolidine-1-carboxamido)acetamido)-7-fluoro-2-hydroxy-3,4-dihydro-2H-benzo[e][1,2]oxaborinine-8-carboxylic acid], in assay [1] (setting [5]), the pEC50 is greater than 5.00. Also, the MIC in assay [2] and in assay [4] (setting [6]) was less than 1 µg/mL in each case. Further, the pIC50 in assay [3] is greater than 5.00.
`O=C(O)c1c(F)ccc2c1OB(O)[C@@H](NC(=O)[C@H](NC(=O)N1CCN(Cc3ccc(O)c(O)c3Cl)C(=O)C1=O)c1ccc(P(=O)(O)O)cc1)C2` (single isomer, unassigned) [Example 160]: in assay [1] (setting [5]), the pEC50 is greater than 5.00. The MIC in assay [2] and in assay [4] (setting [6]) was less than 1 µg/mL each time. For the same molecule, in assay [3], the pIC50 was greater than 5.00.
`O=C(O)c1c(F)ccc2c1OB(O)[C@@H](NC(=O)[C@H](NC(=O)N1CCN(C3CCN(C(=O)c4ccncc4)CC3)C1=O)c1cc(F)c(O)c(O)c1Cl)C2` [Example 461, (R)-3-((R)-2-(2-chloro-5-fluoro-3,4-dihydroxyphenyl)-2-(3-(1-isonicotinoylpiperidin-4-yl)-2-oxoimidazolidine-1-carboxamido)acetamido)-7-fluoro-2-hydroxy-3,4-dihydro-2H-benzo[e][1,2]oxaborinine-8-carboxylic acid]: the pEC50 in assay [1] (setting [5]) was 4.30 to 5.00. For the same molecule, the MIC in assay [2] and in assay [4] (setting [6]) was less than 1 µg/mL each time. Moreover, the pIC50 in assay [3] was greater than 5.00.

The values above are taken from patent US20240270762A1, “PENICILLIN-BINDING PROTEIN INHIBITORS” (priority 2021, published 2024).
